From US20030004126A1, “Formulations of adenosine A1 agonists” (priority 1999, published 2003)

Experiments:
Male Random Hooded rats = assay: Carrageenan model: carrageenan-induced decrease in weight bearing (allodynia) and paw oedema; format: in vivo; settings: Compound A orally, dosed with morphine subcutaneously; rat, 3 hours after intraplantar 2% carrageenan; dual channel weight averager
Protocol: (a) Carrageenan Model for 5′-Deoxy-5′-fluoro-N-(tetrahydro-pyran-4-yl)-adenosine (Adenosine A1 Agonist) and Morphine
Male Random Hooded rats (180-220 g) were used. The test compound or vehicle was administered 30 mins before the 2nd test compound or vehicle. The test compounds and vehicles used were: (i) Compound A in 0.25% methyl cellulose and (ii) Morphine was made up in saline. Compound A was administered orally. Morphine was administered subcutaneously. After a further 30 mins 100 ul of 2% carrageenan was injected intraplantar into the left hind paw and the animals were then returned to their cages. Three hours later behavioural testing of the carrageenan-induced decrease in weight on the inflamed left hind paw (% weight on the inflammed left hind paw) and associated oedema was assessed. Weight bearing was measured using the dual channel weight averager and paw oedema was assessed using a plethysmometer. The dual channel weight averager is commercially available and is described in the following abstract: Validation of the dual channel weight averager as an instrument for the measurement of inflammatory pain, N. M. Clayton et al., 1997 British Journal Pharmacol. 120, 219P
Note: In the absense of pain, weight on the hind paws would be evenly distributed, i.e. 50% on each hind paw. […]

rats = assay: Nociceptive study using an algesymeter (normal nociceptive thresholds); format: in vivo; settings: Compound A in combination with morphine, rat
Protocol: (b) Nociceptive Study for 5′-Deoxy-5′-fluoro-N-(tetrahydro-pyran4-yl)-adenosine (Adenosine A1 Agonist) and morphine
Nociception studies were carried out using an algesymeter (Randal, L et. al ([…]). Arch. Int. Pharmacodyn., 61 409-419. Variations in the rats normal nociceptive thresholds were studied.

`O[C@@H]1[C@H](O)[C@@H](CF)O[C@H]1n1cnc2c(NC3CCOCC3)ncnc21` [5′-Deoxy-5′-fluoro-N-(tetrahydro-pyran-4-yl)-adenosine] was tested, and the “effect against the carrageenan-induced decrease in weight bearing” value (Male Random Hooded rats) was “at least an additive effect” and the “effect on normal nociceptive levels (nociceptive threshold)” value (rats) was “significantly increased the normal nociceptive levels of the rat producing at least an additive if not synergistic effect”.
